Where a name gives a salt, the structure may show the parent alone.
Assays:
Details in all cases: exposure time: 72 h
[1] = test system: E21 (patient-derived glioblastoma stem cells of mesenchymal subtype); assay: phenotypic distance (Euclidean, principal components) from DMSO controls (arbitrary units); higher = stronger morphological change
[2] = test system: E31 (patient-derived glioblastoma stem cells of proneural subtype); assay: as above
[3] = test system: E57 (patient-derived glioblastoma stem cells of mesenchymal subtype); assay: as above
[4] = test system: E28 (patient-derived glioblastoma stem cells of classical subtype); assay: as above
[5] = test system: E13 (patient-derived glioblastoma stem cells of classical subtype); assay: as above
[6] = test system: FT3469 (normal neural stem cell line); assay: as above
[7] = test system: E34 (patient-derived glioblastoma stem cells of proneural subtype); assay: as above
[8] = test system: E21; assay: surviving fraction (nuclei count normalised to DMSO); higher = more cells surviving (less toxic)
[9] = test system: E31; assay: as above
[10] = test system: E57; assay: as above
[11] = test system: E28; assay: as above
[12] = test system: E13; assay: as above
[13] = test system: FT3469; assay: as above
[14] = test system: E34; assay: as above
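For phenotypic distance (Euclidean, principal components) from DMSO controls in this document: cell Painting imaging in 384-well plates, CellProfiler features reduced to at least 20 principal components, Euclidean distance versus same-plate DMSO vehicle wells (0.1% v/v), median over six images per well.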
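For surviving fraction (nuclei count normalised to DMSO) in this document: nuclei counted by high-content imaging of Hoechst-stained cells in laminin-coated 384-well plates, relative to 0.1% DMSO vehicle wells, with staurosporine as cell-death control.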

CCC[C@@H]1C[C@@H](C(=O)N[C@@H]([C@H]2O[C@H](SC)[C@H](O)[C@@H](O)[C@H]2O)[C@@H](C)O)N(C)C1 [Lincomycin hydrochloride]
Details	phenotypic distance	surviving fraction
[1], 4.1 nM	0.423	–
[1], 12.3 nM	0.813	–
[1], 37 nM	0.629	–
[1], 111.1 nM	0.635	–
[1], 333.3 nM	0.696	–
[1], 1000 nM	0.667	–
[1], 3000 nM	0.478	–
[2], 4.1 nM	0.488	–
[2], 12.3 nM	0.574	–
[2], 37 nM	0.621	–
[2], 111.1 nM	0.44	–
[2], 333.3 nM	0.659	–
[2], 1000 nM	0.74	–
[2], 3000 nM	0.788	–
[3], 4.1 nM	0.854	–
[3], 12.3 nM	1.06	–
[3], 37 nM	0.755	–
[3], 111.1 nM	0.617	–
[3], 333.3 nM	0.478	–
[3], 1000 nM	0.463	–
[3], 3000 nM	0.394	–
[4], 4.1 nM	0.634	–
[4], 12.3 nM	0.929	–
[4], 37 nM	1.11	–
[4], 111.1 nM	0.703	–
[4], 333.3 nM	0.726	–
[4], 1000 nM	0.598	–
[4], 3000 nM	0.576	–
[5], 4.1 nM	0.648	–
[5], 12.3 nM	0.534	–
[5], 37 nM	0.423	–
[5], 111.1 nM	0.641	–
[5], 333.3 nM	0.442	–
[5], 1000 nM	0.768	–
[5], 3000 nM	0.427	–
[6], 4.1 nM	0.783	–
[6], 12.3 nM	0.977	–
[6], 37 nM	0.592	–
[6], 111.1 nM	0.704	–
[6], 333.3 nM	0.658	–
[6], 1000 nM	1.03	–
[6], 3000 nM	0.496	–
[7], 4.1 nM	0.57	–
[7], 12.3 nM	0.706	–
[7], 37 nM	0.876	–
[7], 111.1 nM	1.02	–
[7], 333.3 nM	0.802	–
[7], 1000 nM	0.879	–
[7], 3000 nM	0.674	–
[8], 4.1 nM	–	0.94
[8], 12.3 nM	–	0.873
[8], 37 nM	–	0.963
[8], 111.1 nM	–	0.936
[8], 333.3 nM	–	0.972
[8], 1000 nM	–	0.984
[8], 3000 nM	–	0.94
[9], 4.1 nM	–	1.03
[9], 12.3 nM	–	0.994
[9], 37 nM	–	1.03
[9], 111.1 nM	–	1.15
[9], 333.3 nM	–	1.1
[9], 1000 nM	–	1.21
[9], 3000 nM	–	0.936
[10], 4.1 nM	–	1.09
[10], 12.3 nM	–	1.08
[10], 37 nM	–	0.957
[10], 111.1 nM	–	1.07
[10], 333.3 nM	–	0.959
[10], 1000 nM	–	0.997
[10], 3000 nM	–	0.976
[11], 4.1 nM	–	1.05
[11], 12.3 nM	–	1.04
[11], 37 nM	–	1.08
[11], 111.1 nM	–	0.956
[11], 333.3 nM	–	1.12
[11], 1000 nM	–	1.12
[11], 3000 nM	–	1.03
[12], 4.1 nM	–	0.937
[12], 12.3 nM	–	0.912
[12], 37 nM	–	0.891
[12], 111.1 nM	–	0.967
[12], 333.3 nM	–	1.07
[12], 1000 nM	–	1.1
[12], 3000 nM	–	0.894
[13], 4.1 nM	–	0.948
[13], 12.3 nM	–	0.951
[13], 37 nM	–	0.828
[13], 111.1 nM	–	1.15
[13], 333.3 nM	–	1.1
[13], 1000 nM	–	1.08
[13], 3000 nM	–	1.08
[14], 4.1 nM	–	0.988
[14], 12.3 nM	–	0.937
[14], 37 nM	–	0.909
[14], 111.1 nM	–	1.09
[14], 333.3 nM	–	1.11
[14], 1000 nM	–	1.25
[14], 3000 nM	–	0.902

— the supplement of paper PMC13207355
